According to ChEMBL document CHEMBL1201862, “PubChem BioAssay data set” (2004):
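Each compound was tested at five concentrations against cells in 96-well plates for 48 hours. GI50 is the concentration that inhibits growth by half.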 The source made the active and inactive calls. No stated cut-off is given here; in the data, active = GI50 up to about 1.1 µM and inactive = higher.

Key:
Assay in all cases: growth of human tumour cells (NCI), 48 h
OVCAR-5 = tested on: OVCAR-5
UACC-62 = tested on: UACC-62
HL-60 = tested on: HL-60
U-251 = tested on: U-251
MCF7 = tested on: MCF7
MOLT-4 = tested on: MOLT-4
SNB-78 = tested on: SNB-78
SNB-75 = tested on: SNB-75
IGROV-1 = tested on: IGROV-1
HCC 2998 = tested on: HCC 2998
HCT-15 = tested on: HCT-15
HOP-62 = tested on: HOP-62
SF-539 = tested on: SF-539
SF-295 = tested on: SF-295
NCI-H460 = tested on: NCI-H460
SK-MEL-28 = tested on: SK-MEL-28
LXFL 529 = tested on: LXFL 529
MDA-MB-435 = tested on: MDA-MB-435
DU-145 = tested on: DU-145
T47D = tested on: T47D

Row | SMILES | GI50 (OVCAR-5) | GI50 (UACC-62) | GI50 (HL-60) | GI50 (U-251) | GI50 (MCF7) | GI50 (MOLT-4) | GI50 (SNB-78) | GI50 (SNB-75) | GI50 (IGROV-1) | GI50 (HCC 2998) | GI50 (HCT-15) | GI50 (HOP-62) | GI50 (SF-539) | GI50 (SF-295) | GI50 (NCI-H460) | GI50 (SK-MEL-28) | GI50 (LXFL 529) | GI50 (MDA-MB-435) | GI50 (DU-145) | GI50 (T47D)
1 | O=C(N[C@@H](c1ccccc1)[C@@H](O)C(=O)OCc1ccc2c(c1)OCO2)c1ccccc1 | > 31.6 µM (inactive) | > 80.7 µM (inactive) | > 100 µM (inactive) | > 100 µM (inactive) | > 100 µM (inactive) | > 91.8 µM (inactive) | > 100 µM (inactive) | > 90.4 µM (inactive) | > 100 µM (inactive) | > 100 µM (inactive) | > 100 µM | > 100 µM (inactive) | > 100 µM (inactive) | > 100 µM (inactive) | > 100 µM (inactive) | > 100 µM (inactive) |  |  |  | 
2 | CC1C(=O)CC(c2cccs2)N(N=O)C1c1cccs1 (centres undefined) | > 100 µM (inactive) | 59.7 µM (inactive) | 26.7 µM (inactive) | 68.2 µM (inactive) | 19.3 µM (inactive) | 25.8 µM (inactive) | 35.7 µM (inactive) | 33.1 µM (inactive) | 98.6 µM (inactive) | 30.4 µM (inactive) | 46.1 µM | 97.7 µM (inactive) | 57.5 µM (inactive) | 24.7 µM (inactive) | 34.8 µM (inactive) | 53.2 µM (inactive) |  |  |  | 
3 | CN(C)/N=C(\CCN1CCCC1)CC(c1ccccc1)c1c(O)c2ccccc2oc1=O (centres undefined) | > 100 µM (inactive) | > 100 µM (inactive) | 25.2 µM (inactive) |  |  |  |  | 58.2 µM (inactive) | > 100 µM (inactive) | > 100 µM (inactive) |  | > 100 µM (inactive) | > 100 µM (inactive) | > 100 µM (inactive) |  | > 100 µM (inactive) | > 100 µM (inactive) |  |  | 
4 | O=C(O)CCNCCCNCCC(=O)O | > 100 µM (inactive) | > 100 µM (inactive) | > 100 µM (inactive) | > 100 µM (inactive) |  | > 100 µM (inactive) |  | 66.8 µM (inactive) | > 100 µM (inactive) | > 100 µM (inactive) | > 100 µM | > 100 µM (inactive) | > 100 µM (inactive) | > 100 µM (inactive) | > 100 µM (inactive) | > 100 µM (inactive) | > 100 µM (inactive) |  |  | 
5 | CC(C(O)c1ccccc1)C(O)(C(F)(F)F)C(F)(F)F (centres undefined) | > 100 µM (inactive) | > 100 µM (inactive) | > 100 µM (inactive) | > 100 µM (inactive) | 76.4 µM (inactive) | > 100 µM (inactive) |  | 65.3 µM (inactive) | 84.5 µM (inactive) | > 100 µM (inactive) | > 100 µM | > 100 µM (inactive) | > 100 µM (inactive) | > 100 µM (inactive) | > 100 µM (inactive) | > 100 µM (inactive) |  | > 100 µM (inactive) | > 100 µM (inactive) | > 100 µM (inactive)
6 | CCCCCCCCOC(CO)CO | > 100 µM (inactive) | > 100 µM (inactive) | > 100 µM (inactive) | > 100 µM (inactive) |  | > 100 µM (inactive) |  |  | > 100 µM (inactive) | > 100 µM (inactive) | > 100 µM | > 100 µM (inactive) |  | > 100 µM (inactive) | > 100 µM (inactive) | > 100 µM (inactive) | > 100 µM (inactive) |  |  | 
7 | CCCCCCc1cn([C@H]2C[C@H](O)[C@@H](CO)O2)c(=O)[nH]c1=O | > 100 µM (inactive) | > 31.6 µM (inactive) | > 100 µM (inactive) | > 100 µM (inactive) | > 100 µM (inactive) |  | > 100 µM (inactive) | > 100 µM (inactive) | > 100 µM (inactive) | > 100 µM (inactive) | > 100 µM | > 10 µM (inactive) | > 100 µM (inactive) | > 31.6 µM (inactive) | > 100 µM (inactive) | > 100 µM (inactive) |  |  |  | 
